Measurements reported in PubChem BioAssay AID2060892 (Molecular Pharmacology Branch, DTP, NCI, 2025).

Tested on: HOP-62 complex spheroids with HUVEC/MSC, viability
Experiment: Anticancer human tumor HOP-62 cell line growth inhibition [RAS];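 also: spheroids exposed to agents for seven days before readout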;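 as to viability, T/C: 100% = DMSO vehicle control viability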
Conditions: for IC50: curve of first compound; for viability, T/C: stronger effect = lower value
In short: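 Agents were tested in combination matrices in half-log decrements from a top concentration at or near clinical Cmax (10 microM if undetermined). Targets were multi-cell spheroids of tumour lines plus HUVEC and MSC stromal cells.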

[1] = second compound 0.000949 µM, first compound 0.0316 µM
[2] = second compound 0.000949 µM, first compound 0.1 µM
[3] = second compound 0.000949 µM, first compound 0.316 µM
[4] = second compound 0.000949 µM, first compound 1 µM
[5] = second compound 0.000949 µM, first compound 3.16 µM
[6] = second compound 0.000949 µM, first compound 10 µM
[7] = second compound 0.003 µM, first compound 0.0316 µM
[8] = second compound 0.003 µM, first compound 0.1 µM
[9] = second compound 0.003 µM, first compound 0.316 µM
[10] = second compound 0.003 µM, first compound 1 µM
[11] = second compound 0.003 µM, first compound 3.16 µM
[12] = second compound 0.003 µM, first compound 10 µM
[13] = second compound 0.00949 µM, first compound 0.0316 µM
[14] = second compound 0.00949 µM, first compound 0.1 µM
[15] = second compound 0.00949 µM, first compound 0.316 µM
[16] = second compound 0.00949 µM, first compound 1 µM
[17] = second compound 0.00949 µM, first compound 3.16 µM
[18] = second compound 0.00949 µM, first compound 10 µM
[19] = second compound 0.03 µM, first compound 0.0316 µM
[20] = second compound 0.03 µM, first compound 0.1 µM
[21] = second compound 0.03 µM, first compound 0.316 µM
[22] = second compound 0.03 µM, first compound 1 µM
[23] = second compound 0.03 µM, first compound 3.16 µM
[24] = second compound 0.03 µM, first compound 10 µM
[25] = second compound 0.0949 µM, first compound 0.0316 µM
[26] = second compound 0.0949 µM, first compound 0.1 µM
[27] = second compound 0.0949 µM, first compound 0.316 µM
[28] = second compound 0.0949 µM, first compound 1 µM
[29] = second compound 0.0949 µM, first compound 3.16 µM
[30] = second compound 0.0949 µM, first compound 10 µM
[31] = second compound 0.3 µM, first compound 0.0316 µM
[32] = second compound 0.3 µM, first compound 0.1 µM
[33] = second compound 0.3 µM, first compound 0.316 µM
[34] = second compound 0.3 µM, first compound 1 µM
[35] = second compound 0.3 µM, first compound 3.16 µM
[36] = second compound 0.3 µM, first compound 10 µM

CC(=O)OC12COC1CC(O)C1(C)C(=O)C(O)C3=C(C)C(OC(=O)C(O)C(NC(=O)OC(C)(C)C)c4ccccc4)CC(O)(C(OC(=O)c4ccccc4)C21)C3(C)C (stereo not given) + CCn1c(-c2cc(N3CCN(C)CC3)cnc2C(C)OC)c2c3cc(ccc31)-c1csc(n1)CC(NC(=O)C1CC1C)C(=O)N1CCCC(N1)C(=O)OCC(C)(C)C2
IC50 (second compound 0.000949 µM): < 31.6 nM
IC50 (second compound 0.003 µM): < 31.6 nM
IC50 (second compound 0.00949 µM): < 31.6 nM
IC50 (second compound 0.03 µM): < 31.6 nM
IC50 (second compound 0.0949 µM): < 31.6 nM
IC50 (second compound 0.3 µM): < 31.6 nM
viability, T/C [1]: 41.1%
viability, T/C [2]: 34.9%
viability, T/C [3]: 28.9%
viability, T/C [4]: 43.6%
viability, T/C [5]: 42.7%
viability, T/C [6]: 42.6%
viability, T/C [7]: 44.1%
viability, T/C [8]: 38.5%
viability, T/C [9]: 33.4%
viability, T/C [10]: 30.6%
viability, T/C [11]: 36.6%
viability, T/C [12]: 35%
viability, T/C [13]: 42.4%
viability, T/C [14]: 28.5%
viability, T/C [15]: 31.5%
viability, T/C [16]: 37%
viability, T/C [17]: 35.9%
viability, T/C [18]: 33.4%
viability, T/C [19]: 44.1%
viability, T/C [20]: 35.1%
viability, T/C [21]: 31.1%
viability, T/C [22]: 30.8%
viability, T/C [23]: 30.4%
viability, T/C [24]: 40.1%
viability, T/C [25]: 32.3%
viability, T/C [26]: 33.6%
viability, T/C [27]: 31.5%
viability, T/C [28]: 32.9%
viability, T/C [29]: 33.6%
viability, T/C [30]: 32.6%
viability, T/C [31]: 37%
viability, T/C [32]: 30.9%
viability, T/C [33]: 39%
viability, T/C [34]: 31.7%
viability, T/C [35]: 27.9%
viability, T/C [36]: 35.6%

CCC(CC)c1cc(NC2CCC(N)C2)n2nccc2n1 (stereo not given) + CCn1c(-c2cc(N3CCN(C)CC3)cnc2C(C)OC)c2c3cc(ccc31)-c1csc(n1)CC(NC(=O)C1CC1C)C(=O)N1CCCC(N1)C(=O)OCC(C)(C)C2
IC50 (second compound 0.000949 µM): 2040 nM
IC50 (second compound 0.003 µM): 1890 nM
IC50 (second compound 0.00949 µM): 1560 nM
IC50 (second compound 0.03 µM): 1270 nM
IC50 (second compound 0.0949 µM): 1020 nM
IC50 (second compound 0.3 µM): 31.6 nM
viability, T/C [1]: 116%
viability, T/C [2]: 125%
viability, T/C [3]: 94.3%
viability, T/C [4]: 128%
viability, T/C [5]: 9.48%
viability, T/C [6]: 1.8%
viability, T/C [7]: 91.4%
viability, T/C [8]: 99.2%
viability, T/C [9]: 91.5%
viability, T/C [10]: 121%
viability, T/C [11]: 8.75%
viability, T/C [12]: 1.01%
viability, T/C [13]: 74.9%
viability, T/C [14]: 63.3%
viability, T/C [15]: 80%
viability, T/C [16]: 93.5%
viability, T/C [17]: 5.73%
viability, T/C [18]: 0.77%
viability, T/C [19]: 54%
viability, T/C [20]: 56.3%
viability, T/C [21]: 57.9%
viability, T/C [22]: 81.2%
viability, T/C [23]: 2.62%
viability, T/C [24]: 0.93%
viability, T/C [25]: 40.1%
viability, T/C [26]: 49.5%
viability, T/C [27]: 52.8%
viability, T/C [28]: 61.5%
viability, T/C [29]: 2.26%
viability, T/C [30]: 2.34%
viability, T/C [31]: 33.1%
viability, T/C [32]: 43.1%
viability, T/C [33]: 47.9%
viability, T/C [34]: 50.8%
viability, T/C [35]: 6.58%
viability, T/C [36]: 1.42%

Cc1nc(N2CCC3(CC2)COC(C)C3N)c(CO)nc1Sc1ccnc(N)c1Cl (stereo not given) + CCn1c(-c2cc(N3CCN(C)CC3)cnc2C(C)OC)c2c3cc(ccc31)-c1csc(n1)CC(NC(=O)C1CC1C)C(=O)N1CCCC(N1)C(=O)OCC(C)(C)C2
IC50 (second compound 0.000949 µM): 1880 nM
IC50 (second compound 0.003 µM): 439 nM
IC50 (second compound 0.00949 µM): 124 nM
IC50 (second compound 0.03 µM): < 31.6 nM
IC50 (second compound 0.0949 µM): < 31.6 nM
IC50 (second compound 0.3 µM): < 31.6 nM
viability, T/C [1]: 110%
viability, T/C [2]: 98.2%
viability, T/C [3]: 50.6%
viability, T/C [4]: 63.7%
viability, T/C [5]: 56.7%
viability, T/C [6]: 21.8%
viability, T/C [7]: 83.8%
viability, T/C [8]: 66.5%
viability, T/C [9]: 47.2%
viability, T/C [10]: 45.6%
viability, T/C [11]: 33.1%
viability, T/C [12]: 18.4%
viability, T/C [13]: 71.4%
viability, T/C [14]: 49.3%
viability, T/C [15]: 40.6%
viability, T/C [16]: 31.8%
viability, T/C [17]: 24%
viability, T/C [18]: 19%
viability, T/C [19]: 46.5%
viability, T/C [20]: 40.6%
viability, T/C [21]: 36.9%
viability, T/C [22]: 24.6%
viability, T/C [23]: 16.8%
viability, T/C [24]: 20.9%
viability, T/C [25]: 37.9%
viability, T/C [26]: 32.6%
viability, T/C [27]: 27.4%
viability, T/C [28]: 20.6%
viability, T/C [29]: 13.9%
viability, T/C [30]: 17.9%
viability, T/C [31]: 37.1%
viability, T/C [32]: 29.9%
viability, T/C [33]: 28.8%
viability, T/C [34]: 19.9%
viability, T/C [35]: 18.4%
viability, T/C [36]: 16%

NC1c2ccccc2OC12CCN(c1cnc3c(N4CCCc5ncccc54)n[nH]c3n1)CC2 (stereo not given) + CCn1c(-c2cc(N3CCN(C)CC3)cnc2C(C)OC)c2c3cc(ccc31)-c1csc(n1)CC(NC(=O)C1CC1C)C(=O)N1CCCC(N1)C(=O)OCC(C)(C)C2
IC50 (second compound 0.000949 µM): 180 nM
IC50 (second compound 0.003 µM): 72 nM
IC50 (second compound 0.00949 µM): < 31.6 nM
IC50 (second compound 0.03 µM): < 31.6 nM
IC50 (second compound 0.0949 µM): < 31.6 nM
IC50 (second compound 0.3 µM): < 31.6 nM
viability, T/C [1]: 87.9%
viability, T/C [2]: 65.9%
viability, T/C [3]: 33.9%
viability, T/C [4]: 28.5%
viability, T/C [5]: 28.1%
viability, T/C [6]: 17.6%
viability, T/C [7]: 72.5%
viability, T/C [8]: 40.5%
viability, T/C [9]: 25.3%
viability, T/C [10]: 25%
viability, T/C [11]: 17.7%
viability, T/C [12]: 14%
viability, T/C [13]: 47.4%
viability, T/C [14]: 29.3%
viability, T/C [15]: 25%
viability, T/C [16]: 17.9%
viability, T/C [17]: 16.5%
viability, T/C [18]: 13.3%
viability, T/C [19]: 42.9%
viability, T/C [20]: 28.7%
viability, T/C [21]: 22.4%
viability, T/C [22]: 16.7%
viability, T/C [23]: 11.3%
viability, T/C [24]: 13.6%
viability, T/C [25]: 30.5%
viability, T/C [26]: 24.8%
viability, T/C [27]: 18.6%
viability, T/C [28]: 17.5%
viability, T/C [29]: 11.2%
viability, T/C [30]: 12.8%
viability, T/C [31]: 31.9%
viability, T/C [32]: 23.6%
viability, T/C [33]: 18.4%
viability, T/C [34]: 15.6%
viability, T/C [35]: 12.5%
viability, T/C [36]: 14.3%

Nc1ccn(C2OC(CO)C(O)C2(F)F)c(=O)n1 (stereo not given) + CCn1c(-c2cc(N3CCN(C)CC3)cnc2C(C)OC)c2c3cc(ccc31)-c1csc(n1)CC(NC(=O)C1CC1C)C(=O)N1CCCC(N1)C(=O)OCC(C)(C)C2
IC50 (second compound 0.000949 µM): 15.7 nM
IC50 (second compound 0.003 µM): 12.9 nM
IC50 (second compound 0.00949 µM): 12 nM
IC50 (second compound 0.03 µM): 10.6 nM
IC50 (second compound 0.0949 µM): < 3.16 nM
IC50 (second compound 0.3 µM): < 3.16 nM
viability, T/C (second compound 0.000949 µM, first compound 0.00316 µM): 121%
viability, T/C (second compound 0.000949 µM, first compound 0.01 µM): 71.2%
viability, T/C [1]: 16.9%
viability, T/C [2]: 12.5%
viability, T/C [3]: 9.82%
viability, T/C [4]: 5.86%
viability, T/C (second compound 0.003 µM, first compound 0.00316 µM): 93.9%
viability, T/C (second compound 0.003 µM, first compound 0.01 µM): 56%
viability, T/C [7]: 29.5%
viability, T/C [8]: 19.4%
viability, T/C [9]: 14.9%
viability, T/C [10]: 8.45%
viability, T/C (second compound 0.00949 µM, first compound 0.00316 µM): 68.1%
viability, T/C (second compound 0.00949 µM, first compound 0.01 µM): 52.5%
viability, T/C [13]: 36.2%
viability, T/C [14]: 26.6%
viability, T/C [15]: 17.5%
viability, T/C [16]: 17.3%
viability, T/C (second compound 0.03 µM, first compound 0.00316 µM): 60.4%
viability, T/C (second compound 0.03 µM, first compound 0.01 µM): 49.2%
viability, T/C [19]: 40.3%
viability, T/C [20]: 31%
viability, T/C [21]: 20.8%
viability, T/C [22]: 25.1%
viability, T/C (second compound 0.0949 µM, first compound 0.00316 µM): 45.6%
viability, T/C (second compound 0.0949 µM, first compound 0.01 µM): 38.4%
viability, T/C [25]: 35.6%
viability, T/C [26]: 28.9%
viability, T/C [27]: 23.9%
viability, T/C [28]: 27.4%
viability, T/C (second compound 0.3 µM, first compound 0.00316 µM): 43.5%
viability, T/C (second compound 0.3 µM, first compound 0.01 µM): 38.8%
viability, T/C [31]: 39.7%
viability, T/C [32]: 25.9%
viability, T/C [33]: 25.9%
viability, T/C [34]: 31.7%
